Patent publication US20210290765A1, “SURFACTANTS FOR HEALTHCARE PRODUCTS” (AdvanSix Resins & Chemicals LLC, priority 2020, published 2021)

Tests used:
Assay type in all cases: physicochemical
[1] = Critical micelle concentration (CMC) and surface tension versus concentration in water, Wilhelmy plate method; details: for plateau value of minimum surface tension that can be reached / surface tension at the CMC (from the plot) / critical micelle concentration (CMC): 23° C.; for plateau value of minimum surface tension that can be reached / surface tension at the CMC (from the plot): pH=7; for critical micelle concentration (CMC): pH=7, Wilhelmy plate
From the text: These properties may be measured and described by various methods. One method by which surfactants may be described is by the molecule's critical micelle concentration (CMC). CMC may be defined as the concentration of a surfactant at which micelles form, and above which all additional surfactant is incorporated into micelles.
As surfactant concentration increases, surface tension decreases. Once the surface is completely overlaid with surfactant molecules, micelles begin to form. This point represents the CMC, as well as the minimum surface tension. Further addition of surfactant will not further affect the surface tension. CMC may therefore be measured by observing the change in surface tension as a function of surfactant concentration. One such method for measuring this value is the Wilhemy plate method. A Wilhelmy plate is usually a thin iridium-platinum plate attached to a balance by a wire and placed perpendicularly to the air-liquid interface. The balance is used to measure the force exerted on the plate by wetting. This value is then used to calculate the surface tension (γ) according to Equation 1: […]
wherein I is equal to the wetted perimeter (2w+2d, in which w and d are the plate thickness and width, respectively) and cos θ, the contact angle between the liquid and the plate, is assumed to be 0 in the absence of an extant literature value.
(§1) Nuclear magnetic resonance (NMR) spectroscopy was performed on a Bruker 500 MHz spectrometer. The critical micelle concentration (CMC) was determined by the Wilhelmy plate method at 23° C. with a tensiometer (DCAT 11, DataPhysics Instruments GmbH) equipped with a Pt—Ir plate. Dynamic surface tension was determined with a bubble pressure tensiometer (Krüss BP100, Krüss GmbH), at 23° C. Contact angle was determined with the optical contact angle goniometer (OCA 15 Pro, DataPhysics GmbH) equipped with a digital camera.

[2] = Dynamic surface tension, bubble pressure tensiometer
From the text: Another parameter used to assess the performance of surfactants is dynamic surface tension. The dynamic surface tension is the value of the surface tension for a particular surface or interface age. In the case of liquids with added surfactants, this can differ from the equilibrium value. Immediately after a surface is produced, the surface tension is equal to that of the pure liquid. As described above, surfactants reduce surface tension; therefore, the surface tension drops until an equilibrium value is reached. The time required for equilibrium to be reached depends on the diffusion rate and the adsorption rate of the surfactant.
One method by which dynamic surface tension is measured relies upon a bubble pressure tensiometer. This device measures the maximum internal pressure of a gas bubble that is formed in a liquid by means of a capillary. The measured value corresponds to the surface tension at a certain surface age, the time from the start of the bubble formation to the occurrence of the pressure maximum. The dependence of surface tension on surface age can be measured by varying the speed at which bubbles are produced.
as §1

[3] = Wetting properties: contact angle on solid substrates, optical contact angle goniometer; details: 10x CMC
From the text: Surface-active compounds may also be assessed by their wetting ability on solid substrates as measured by the contact angle. When a liquid droplet comes in contact with a solid surface in a third medium, such as air, a three-phase line forms among the liquid, the gas and the solid. The angle between the surface tension unit vector, acting at the three-phase line and tangent at the liquid droplet, and the surface is described as the contact angle. The contact angle (also known as wetting angle) is a measure of the wettability of a solid by a liquid. In the case of complete wetting, the liquid is completely spread over the solid and the contact angle is 0°. Wetting properties are typically measured for a given compound at the concentration of 1-100×CMC, however, it is not a property that is concentration-dependent therefore measurements of wetting properties can be measured at concentrations that are higher or lower.
In one method, an optical contact angle goniometer may be used to measure the contact angle. This device uses a digital camera and software to extract the contact angle by analyze the contour shape of a sessile droplet of liquid on a surface.
as §1

[4] = surface age 1 ms, air-water interface, 23° C.
[5] = substrate Polyethylene terephthalate

plateau value of minimum surface tension that can be reached [1]	surface tension at the CMC (from the plot) [1]	critical micelle concentration (CMC) [1]	dynamic surface tension [2, 4]	CA of Surfactant (contact angle) ([3]; substrate Nylon) [°]	CA of Surfactant (contact angle) [3, 5] [°]	CA of Surfactant (contact angle) ([3]; substrate Polyethylene-HD) [°]	CA of Surfactant (contact angle) ([3]; substrate Teflon) [°]	time in which the compound fully saturated the surface ([2]; air-water interface, 23° C.)	Structure (SMILES)	further results
about 33 mN/m	about 34 mN/m	about 1 mmol	about 55.5 mN/m	31.5	38.4	32	67.1	–	CCCCCCCCCCCCOC(=O)CCCCC[N+](C)(C)C.[I-] [Surfactant 1, 6-(dodecyloxy)-N,N,N-trimethyl-6-oxohexan-1-aminium iodide]	surface tension ([1]; at a concentration of 1.0 mmol or greater): about 33.8 mN/m; dynamic surface tension ([2]; surface age 75 ms, air-water interface, 23° C.): about 39.9 mN/m; dynamic surface tension ([2]; surface age 50,410 ms, air-water interface, 23° C.): about 34 mN/m
about 28 mN/m	≤ 30 mN/m	about 0.08 mmol	–	21.7	24.5	39.3	57.4	approximately 7.6 seconds	CCCCCCCCCCCCOC(=O)CCCCC[N+](C)(C)[O-] [Surfactant 2, dodecyl 6-(dimethylamino)hexanoate N-oxide]	surface tension ([1]; at a concentration of 0.08 mmol or greater): ≤ 30 mN/m; dynamic surface tension ([2]; surface age of 4900 ms or greater): ≤ 40 mN/m
about 30 mN/m	≤ 30 mN/m	about 1.4 mmol	about 50 mN/m	15	18.3	42.5	66.6	–	CCCCCCCCCCCCOC(=O)CCCCCN(C)C.Cl [Surfactant 3, 6-(dodecyloxy)-N,N-dimethyl-6-oxohexan-1-aminium chloride]	surface tension ([1]; at a concentration of 2.7 mmol or greater): ≤ 33 mN/m; dynamic surface tension ([2]; surface age 100 ms, air-water interface, 23° C.): about 40 mN/m; dynamic surface tension ([2]; surface age 50,000 ms, air-water interface, 23° C.): about 34 mN/m
about 23 mN/m	about 23 mN/m	about 0.75 mmol	–	18.2	15.3	16.6	39.3	approximately 1.5 seconds	CCCCCCCCCCCCOC(=O)CCCCCN.Cl [Surfactant 5, 6-(dodecyloxy)-6-oxohexan-1-aminium chloride]	surface tension ([1]; at a concentration of 0.7 mmol or greater): ≤ 23.2 mN/m; dynamic surface tension ([2]; surface age of 3185 ms or greater): ≤ 28.5 mN/m
about 38 mN/m	about 38 mN/m	about 0.1 mmol	–	25.7	35.6	46.5	62.7	approximately 1 seconds	CCCCCCCCCCCCOC(=O)CCCCC[N+](C)(C)CCCCS(=O)(=O)[O-] [Surfactant 4, 4-((6-(dodecyloxy)-6-oxohexyl)dimethylammonio)butane-1-sulfonate]	surface tension ([1]; at a concentration of 1 mmol or greater): ≤ 37 mN/m; dynamic surface tension ([2]; surface age of 4000 ms or greater): ≤ 40.5 mN/m
